Peptide text beside a SMILES is read from it. Bounds are passed on as bounds.

In general, IC50 refers to the concentration that inhibits the measured activity by half. Low values mean higher potency, high ones lower potency.

In the assay the target is T1, Angiotensin Converting Enzyme (ACE) (Oryctolagus cuniculus, UniProt P12822).
T1 sequence (P12822 34-1310): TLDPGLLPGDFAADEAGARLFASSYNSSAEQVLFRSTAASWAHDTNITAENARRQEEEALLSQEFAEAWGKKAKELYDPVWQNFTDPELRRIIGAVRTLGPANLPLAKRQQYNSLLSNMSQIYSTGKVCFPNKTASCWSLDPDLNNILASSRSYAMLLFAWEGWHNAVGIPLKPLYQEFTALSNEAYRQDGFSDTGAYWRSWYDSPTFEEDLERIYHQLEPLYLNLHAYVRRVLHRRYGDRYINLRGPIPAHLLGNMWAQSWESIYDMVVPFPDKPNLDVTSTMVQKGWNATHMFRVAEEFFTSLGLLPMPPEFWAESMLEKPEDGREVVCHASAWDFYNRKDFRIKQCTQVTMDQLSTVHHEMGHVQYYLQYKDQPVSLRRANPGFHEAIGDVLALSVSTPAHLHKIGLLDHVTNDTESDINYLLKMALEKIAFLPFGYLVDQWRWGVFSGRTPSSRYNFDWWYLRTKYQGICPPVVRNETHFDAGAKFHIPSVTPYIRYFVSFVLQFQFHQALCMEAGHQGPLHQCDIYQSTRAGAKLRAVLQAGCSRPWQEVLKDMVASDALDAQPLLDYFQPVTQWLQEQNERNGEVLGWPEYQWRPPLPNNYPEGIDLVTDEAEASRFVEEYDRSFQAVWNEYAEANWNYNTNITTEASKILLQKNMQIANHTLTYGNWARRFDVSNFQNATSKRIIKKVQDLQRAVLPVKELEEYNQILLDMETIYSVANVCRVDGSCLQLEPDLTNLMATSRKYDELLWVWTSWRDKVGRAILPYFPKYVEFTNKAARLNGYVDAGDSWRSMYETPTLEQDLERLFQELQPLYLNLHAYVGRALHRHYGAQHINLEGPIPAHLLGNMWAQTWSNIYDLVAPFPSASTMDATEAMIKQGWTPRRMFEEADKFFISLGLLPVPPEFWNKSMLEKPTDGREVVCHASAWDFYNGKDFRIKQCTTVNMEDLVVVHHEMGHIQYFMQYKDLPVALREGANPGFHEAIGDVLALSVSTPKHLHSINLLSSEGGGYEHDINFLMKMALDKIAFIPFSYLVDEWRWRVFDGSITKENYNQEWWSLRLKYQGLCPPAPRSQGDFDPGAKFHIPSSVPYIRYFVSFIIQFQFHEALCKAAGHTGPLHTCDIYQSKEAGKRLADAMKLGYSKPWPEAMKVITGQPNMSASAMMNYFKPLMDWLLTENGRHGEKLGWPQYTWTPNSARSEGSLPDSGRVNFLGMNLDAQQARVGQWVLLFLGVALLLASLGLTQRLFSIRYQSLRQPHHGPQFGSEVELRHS
The assay can be described thus: Measurement of ACE inhibitor activity (ACEI activity), Hip-His-Leu substrate, hippuric acid read at 228 nm. In kind it is biochemical. To be noted: chemically synthesized peptides, Table 4. Here is the method: The measurement of ACE activity was performed according to the method disclosed by Cushman and Cheung (Cushman DW, Cheung HS. 1971. Biochem Pharmacol 20:1637-1648) and subsequently modified by Nakamura (Nakamura Y, Yamamoto N, Sakai K et al. 1995. J Dairy Sci 78:777-783). This method is based on the use of Hippuryl-L-Histidyl-L-Leucine (Hip-His-Leu) as substrate given that the action of the ACE on such substrate produced the release of hippuric acid, easily quantifiable by spectrophotometry by absorbance reading at 228 nm (A228) after extraction thereof with ethyl acetate. If the sample to be tested is added to the reaction tube along with the ACE and the substrate, the ACEI activity of the sample tested can be determined. As is mentioned in Example 1.1, during the selection of bacteria the sample used to measure ACEI activity was the supernatant of the fermented milk, subjected to centrifugation at 20,000 x g for 10 minutes and subsequently diluted to half with distilled water.
The substrate solution was formed by 0.1 M sodium borate, 300 mM sodium chloride, 5 mM Hip-His-Leu (Sigma, St. Louis, MO), pH 8.3 at 37°C. The ACE enzyme solution (Sigma, St. Louis, MO) was adjusted to an activity of 0.1 U/mL.
The different reaction mixtures were incubated for 30 minutes at 37°C and subsequently 150 µL of 1 M hydrochloric acid were added in order to stop the reaction and subsequently 1,000 µL, of ethyl acetate in order to extract the hippuric acid. The resulting mixtures were vigorously stirred for 20 seconds and centrifuged at 1,500 x g for 10 minutes in order to separate and collect from each tube the upper phase (ethyl acetate). 750 µL of each upper phase were pipetted into individual tubes, which were introduced in a bath of boiling water under a fume extraction hood until the solvent evaporated. Once the ethyl acetate was eliminated 800 µL of distilled water were added to each tube to dissolve the dry residue smoothly and without stirring. Finally the content of each tube was transferred to quartz cuvettes to read their absorbance at 228 nm. The inhibition percentage (% Inhibition) was calculated by applying the following formula: %Inhibition = ((A)−(B))/((C)−(D)) [formula] wherein (A), (B), (C) and (D) correspond to the absorbances at 228 nm of the solutions indicated in Table 2.
To perform this fermentation example, E. faecalis CECT 5727, E. faecalis CECT 5728, E. faecalis CECT 5826 or E faecalis CECT 5827 may be used indistinctly. The substrate is skimmed bovine milk powder reconstituted in water at 10% and autoclaved ([…] for 20 minutes). First a starter liquid was made, inoculating the substrate with a culture loop such that the initial population was 10^5-10^7 CFU/mL and incubating for 24 hours. 3% by weight of this culture was used as inoculum for the second fermentation which was maintained for 48 hours. Both fermentations were carried out at 30°C. The fermenting process was stopped by pasteurizing the fermented milk [75°C for 1 minute] and the final pasteurized product was used to measure ACEI activity according to the protocol described in Example 1.2, although in this case the fermented milks were subjected to the pasteurization treatment mentioned before being centrifuged at 20,000 x g for 10 minutes. […] Therefore, the final reaction volume is always 160 µL [100 µL of the substrate solution, 20 µL of the ACE solution and 40 µL of the sample to be tested (supernatant at the corresponding dilution with distilled water)].

For the molecule `CC[C@H](C)[C@H](NC(=O)[C@@H](NC(=O)[C@@H]1CCCN1C(=O)[C@H](Cc1ccccc1)NC(=O)[C@@H]1CCCN1C(=O)CNC(=O)[C@H](CCCNC(=N)N)NC(=O)[C@@H](NC(=O)[C@@H]1CCCN1C(=O)CNC(=O)[C@H](CC(C)C)NC(=O)[C@@H](N)C(C)C)C(C)C)[C@@H](C)CC)C(=O)N[C@H](C(=O)O)C(C)C` [SEQ. ID. NO: 7, VLGPVRGPFPIIV] (H-VLGPVRGPFPIIV-OH), the IC50 is above 700 µM.

With `CC(C)[C@H](N)C(=O)N[C@H](C(=O)N[C@H](C(=O)N1CCC[C@H]1C(=O)N1CCC[C@H]1C(=O)N[C@@H](Cc1ccccc1)C(=O)O)C(C)C)C(C)C` [SEQ. ID. NO: 5, VVVPPF] (H-VVVPPF-OH), the concentration for half-maximal inhibition (IC50) is above 700 µM.

The molecule `CC[C@H](C)[C@H](NC(=O)[C@@H]1CCCN1C(=O)CNC(=O)[C@@H]1CCCN1C(=O)[C@H](Cc1ccccc1)NC(=O)[C@@H]1CCCN1C(=O)[C@H](Cc1ccc(O)cc1)NC(=O)[C@@H](NC(=O)[C@@H](N)CC(C)C)C(C)C)C(=O)N1CCC[C@H]1C(=O)N[C@@H](CC(N)=O)C(=O)N[C@@H](CO)C(=O)N[C@@H](CC(C)C)C(=O)N1CCC[C@H]1C(=O)N[C@@H](CCC(N)=O)C(=O)N[C@@H](CC(N)=O)C(=O)N[C@H](C(=O)N1CCC[C@H]1C(=O)N1CCC[C@H]1C(=O)O)[C@@H](C)CC` [SEQ. ID. NO: 8, LVYPFPGPIPNSLPQNIPP] (H-LVYPFPGPIPNSLPQNIPP-OH) registered an IC50 of 5.3 µM.

The molecule `CC(C)C[C@H](N)C(=O)N[C@H](C(=O)N[C@@H](CCC(N)=O)C(=O)N[C@H](C(=O)N1CCC[C@H]1C(=O)N[C@H](C(=O)N[C@H](C(=O)N[C@H](C(=O)N1CCC[C@H]1C(=O)N1CCC[C@H]1C(=O)N[C@@H](Cc1ccccc1)C(=O)O)C(C)C)C(C)C)C(C)C)[C@@H](C)O)[C@@H](C)O` [SEQ. ID. NO: 6, LTQTPVVVPPF] (H-LTQTPVVVPPF-OH) gave an IC50 above 700 µM.

`CC(C)C[C@H](NC(=O)[C@@H]1CCCN1C(=O)[C@H](CC(C)C)NC(=O)[C@@H]1CCCN1C(=O)[C@H](CC(C)C)NC(=O)[C@H](Cc1c[nH]cn1)NC(=O)[C@@H](N)CC(C)C)C(=O)O` [SEQ. ID. NO: 3, LHLPLPL] (H-LHLPLPL-OH): inhibition was half-maximal at 433 µM (IC50).

On to `CC[C@H](C)[C@H](NC(=O)[C@@H](NC(=O)[C@@H]1CCCN1C(=O)[C@H](Cc1ccccc1)NC(=O)[C@@H]1CCCN1C(=O)CNC(=O)[C@H](CCCNC(=N)N)NC(=O)[C@@H](N)C(C)C)[C@@H](C)CC)C(=O)N[C@H](C(=O)O)C(C)C` [SEQ. ID. NO: 4, VRGPFPIIV] (H-VRGPFPIIV-OH), for which it took 630 µM to reach half-maximal inhibition (IC50).

Take `CC(C)C[C@H](NC(=O)[C@@H]1CCCN1C(=O)[C@H](CC(C)C)NC(=O)[C@H](Cc1cnc[nH]1)NC(=O)[C@@H](N)CC(C)C)C(=O)N1CCC[C@H]1C(=O)O` [SEQ. ID. NO: 1, LHLPLP] (H-LHLPLP-OH): half-maximal inhibition (IC50) required 5.4 µM.

As to `CC(C)C[C@H](NC(=O)[C@@H](N)C(C)C)C(=O)NCC(=O)N1CCC[C@H]1C(=O)N[C@H](C(=O)N[C@@H](CCCNC(=N)N)C(=O)NCC(=O)N1CCC[C@H]1C(=O)N[C@@H](Cc1ccccc1)C(=O)N1CCC[C@H]1C(=O)O)C(C)C` [SEQ. ID. NO: 2, VLGPVRGPFP] (H-VLGPVRGPFP-OH), the IC50 turned out to be 137 µM.

Values taken from patent EP1640447A1, “BIOACTIVE PEPTIDE-PRODUCING STRAINS OF i ENTEROCOCCUS FAECALIS /i , BIOACTIVE PEPTIDES AND APPLICATIONS THEREOF” (Grupo Leche Pascual S.A., priority 2003, dated 2004).
